# Test results published in article PMC8820820, “Feasibility and safety of targeting mitochondria for cancer therapy – preclinical characterization of gamitrinib, a first-in-class, mitochondriaL-targeted small molecule Hsp90 inhibitor” (Cancer Biology & Therapy, 2022).
# Several values for one entry are separate records, joined by “and”; a condition that tells them apart may be missing. Equal entries are not always repeated. Entries after “also recorded” stand apart in the source; their conditions may differ.
# Experiments:
# Kv4.3/KChIP2 = biological target: T1, Kv4.3/KChIP2 (Homo sapiens, UniProt Q9UK17); assay: Ion channel screening; type: cell-based; conditions: 10 µM
# T1 sequence (Q9UK17 1-655): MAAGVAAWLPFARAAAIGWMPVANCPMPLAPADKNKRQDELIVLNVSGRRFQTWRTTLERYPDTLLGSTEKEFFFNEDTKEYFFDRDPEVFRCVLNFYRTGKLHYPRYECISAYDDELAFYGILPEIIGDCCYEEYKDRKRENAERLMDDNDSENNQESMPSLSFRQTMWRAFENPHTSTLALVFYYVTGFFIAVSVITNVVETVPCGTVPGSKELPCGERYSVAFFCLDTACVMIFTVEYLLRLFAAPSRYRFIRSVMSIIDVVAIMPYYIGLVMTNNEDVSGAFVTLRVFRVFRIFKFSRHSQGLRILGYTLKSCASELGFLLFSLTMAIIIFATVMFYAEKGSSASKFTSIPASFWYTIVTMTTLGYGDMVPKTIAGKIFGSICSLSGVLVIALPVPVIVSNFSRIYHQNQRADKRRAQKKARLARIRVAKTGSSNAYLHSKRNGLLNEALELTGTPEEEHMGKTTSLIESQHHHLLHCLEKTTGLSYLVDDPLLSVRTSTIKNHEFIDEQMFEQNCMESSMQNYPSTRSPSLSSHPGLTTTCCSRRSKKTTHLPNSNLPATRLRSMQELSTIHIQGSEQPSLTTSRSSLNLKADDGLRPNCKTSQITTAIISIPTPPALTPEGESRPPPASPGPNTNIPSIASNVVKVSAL
# T1 sequence (Q9NS61 1-270 partner): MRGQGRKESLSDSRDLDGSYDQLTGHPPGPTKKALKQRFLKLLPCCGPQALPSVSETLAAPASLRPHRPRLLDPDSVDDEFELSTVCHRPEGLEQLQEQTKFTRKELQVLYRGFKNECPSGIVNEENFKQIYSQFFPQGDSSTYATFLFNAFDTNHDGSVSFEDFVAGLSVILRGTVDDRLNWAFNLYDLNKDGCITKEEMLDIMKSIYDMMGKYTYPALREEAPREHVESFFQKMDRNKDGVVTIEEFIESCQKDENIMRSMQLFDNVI
# Excerpt: Ion channel screening. […] The parameters measured were the maximum inward current evoked on stepping to -20 mV from the 1st and 26th pulse. Human Kv4.3/KChIP2 currents were evoked from a holding potential of -80 mV by a series of four 500 msec pulses to 0 mV using a 1000 msec interval between pulses. The parameter measured was the amplitude of the outward current 50 msec after the onset of the 4th voltage step to 0 mV. […] Human Kv1.5 currents were evoked by a single pulse from a holding potential of -80 mV to a potential of 0 mV for 4 sec before returning to -80 mV. The parameters measured were the maximum amplitude of outward currents evoked at the beginning of the voltage pulse and at the end of the voltage step from -80 mV to 0 mV. Human KCNQ1/minK currents were evoked by a single pulse delivered from a holding potential of -80 mV to +60 mV for 4 sec before returning to -80 mV. The parameter measured was the maximum outward current evoked on stepping to +60 mV from the holding potential of -80 mV. hERG currents were evoked by a three-pulse protocol where voltage was first stepped to +40 mV for two sec from a holding potential of –80 mV to inactivate hERG channels. […] The parameter measured was the maximum inward current evoked upon stepping to -110 mV from the holding potential of -30 mV. […]
# Kir2.1 = biological target: T2, Kir2.1 (Homo sapiens, UniProt P63252); assay: Ion channel screening; type: cell-based; conditions: 10 µM, pulse 10
# T2 sequence (P63252 1-427): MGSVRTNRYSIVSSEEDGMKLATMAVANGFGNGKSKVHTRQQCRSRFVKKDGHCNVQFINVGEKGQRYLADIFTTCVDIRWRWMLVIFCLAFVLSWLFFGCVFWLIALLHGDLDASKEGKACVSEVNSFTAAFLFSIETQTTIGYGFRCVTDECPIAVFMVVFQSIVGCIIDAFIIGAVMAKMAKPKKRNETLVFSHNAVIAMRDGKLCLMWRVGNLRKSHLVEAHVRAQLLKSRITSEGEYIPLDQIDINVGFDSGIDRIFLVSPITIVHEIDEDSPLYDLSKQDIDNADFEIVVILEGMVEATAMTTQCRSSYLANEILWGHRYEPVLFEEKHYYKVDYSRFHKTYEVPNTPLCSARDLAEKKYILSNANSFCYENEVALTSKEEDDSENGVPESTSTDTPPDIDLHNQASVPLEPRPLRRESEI
# Excerpt: Ion channel screening. […] Human Kir2.1 currents were evoked from a holding potential of -20 mV by a series of 10 500 msec pulses to -120 mV using a 200 msec interval between pulses. The parameters measured were the amplitudes of the instantaneous inward currents evoked on stepping to -120 mV for the 1st pulse and the maximum inward current at the end of the 10th hyperpolarizing pulse. For all experiments, data were filtered for seal quality, seal drop, and current amplitude.
# [1] = Gamitrinib pharmacokinetics in rat plasma, single IV dose; type: in vivo, Sprague-Dawley rats
# Experimental: Sprague-Dawley rats (n = 3) were administered with a single intravenous (IV) dose of 1 mL Gamitrinib (5 mg/kg) formulated as described above without added microfluidization. Blood samples were collected via lateral tail vein using K2EDTA as an anticoagulant at 0.083, 0.25, 0.5, 1, 2, 4, and 24 h post-dose, chilled on ice, and centrifuged at 5000 rpm for 10 min. Aliquots (0.2 mL) of each plasma sample were stored frozen at −20°C. For analysis, 50 µL aliquots of the study samples were mixed with 50 µL of ACN/H2O (50:50), extracted by protein precipitation using ACN containing the internal standard Gamitrinib-d15 (100 ng/mL), and the aliquots of the supernatant were mixed with deionized water for Gamitrinib determination. Batch samples under analysis included a calibration curve, a matrix blank (blank rat plasma), a reagent blank, a control zero (blank rat plasma spiked with internal standard), and duplicate QC samples at three concentration levels (low, medium, and high) in addition to the study samples. Within each batch, the study samples were bracketed by calibration standards or QC samples. The lowest calibration standard served to evaluate system suitability at the beginning of each batch. […] Overall, the concentration of Gamitrinib was measured in 21 rat plasma samples in 1 analytical batch using LC-MS/MS data acquisition on a Shimadzu Nexera LC system coupled with an AB Sciex Triple Quad 5500 mass spectrometer. Chromatograms were integrated using Analyst 1.6.2 software. A weighted (1/x^2, x = concentration) linear regression was used to generate the calibration curve for Gamitrinib. […] The mean, standard deviation, precision, accuracy, and assay variability were calculated using Microsoft Excel.
smiles,measurement,setting,value
COC1C=CC=C(C)C(=O)NC2=CC(=O)C(NCCCCCC[P+](c3ccccc3)(c3ccccc3)c3ccccc3)=C(CC(C)CC(OC)C(O)C(C)C=C(C)C1OC(N)=O)C2=O.F[P-](F)(F)(F)(F)F (stereo not shown) [Gamitrinib],inhibition of Kv4.3/KChIP2 currents,Kv4.3/KChIP2,6.8 ± 2.2%
same,inhibition of Kir2.1 currents,Kir2.1,−7.3 ± 3.4%
same,AUCINF,"[1]; 5 mg/kg IV, Mean (n = 3)",976.002 ng·h/mL
same,AUClast (AUC0-t),"[1]; 5 mg/kg IV, Mean (n = 3)",783.1 ± 71.3 ng·h/mL and 783.199 ng·h/mL
same,CL,"[1]; 5 mg/kg IV, Mean (n = 3)",85.6 ± 5.8 mL/min/kg and 85.65 ± 5.85 mL/min/kg and 85.656 mL/min/kg
same,MRT,"[1]; 5 mg/kg IV, Mean (n = 3)",5.492 h
same,Vss,"[1]; 5 mg/kg IV, Mean (n = 3)",65.471 L/kg
same,Vz,"[1]; 5 mg/kg IV, Mean (n = 3)",91.159 L/kg
same,t1/2,"[1]; 5 mg/kg IV, Mean (n = 3)",12.2 ± 1.55 h and 12.250 h
same,AUCINF,"[1]; 5 mg/kg IV, Rat 1",1051.752 ng·h/mL
same,AUClast,"[1]; 5 mg/kg IV, Rat 1",851.441 ng·h/mL
same,CL,"[1]; 5 mg/kg IV, Rat 1",79.233 mL/min/kg
same,Cmax,"[1]; 5 mg/kg IV, Rat 1",1153.712 ng/mL
same,MRT,"[1]; 5 mg/kg IV, Rat 1",5.539 h
same,Vss,"[1]; 5 mg/kg IV, Rat 1",58.230 L/kg
same,Vz,"[1]; 5 mg/kg IV, Rat 1",79.715 L/kg
same,t1/2,"[1]; 5 mg/kg IV, Rat 1",11.623 h
same,AUCINF,"[1]; 5 mg/kg IV, Rat 2",957.472 ng·h/mL
same,AUClast,"[1]; 5 mg/kg IV, Rat 2",789.045 ng·h/mL
same,CL,"[1]; 5 mg/kg IV, Rat 2",87.035 mL/min/kg
same,Cmax,"[1]; 5 mg/kg IV, Rat 2",829.668 ng/mL
same,MRT,"[1]; 5 mg/kg IV, Rat 2",5.411 h
same,Vss,"[1]; 5 mg/kg IV, Rat 2",60.052 L/kg
same,Vz,"[1]; 5 mg/kg IV, Rat 2",83.678 L/kg
same,t1/2,"[1]; 5 mg/kg IV, Rat 2",11.107 h
same,AUCINF,"[1]; 5 mg/kg IV, Rat 3",918.784 ng·h/mL
same,AUClast,"[1]; 5 mg/kg IV, Rat 3",709.112 ng·h/mL
same,CL,"[1]; 5 mg/kg IV, Rat 3",90.700 mL/min/kg
same,Cmax,"[1]; 5 mg/kg IV, Rat 3",1544.041 ng/mL
same,MRT,"[1]; 5 mg/kg IV, Rat 3",5.524 h
same,Vss,"[1]; 5 mg/kg IV, Rat 3",78.131 L/kg
same,Vz,"[1]; 5 mg/kg IV, Rat 3",110.085 L/kg
same,t1/2,"[1]; 5 mg/kg IV, Rat 3",14.022 h
same,Gamitrinib plasma concentration,"[1]; 5 mg/kg IV, animal 1, 5 min",622.199 ng/mL
same,Gamitrinib plasma concentration,"[1]; 5 mg/kg IV, animal 1, 15 min",180.951 ng/mL
same,Gamitrinib plasma concentration,"[1]; 5 mg/kg IV, animal 1, 30 min",106.381 ng/mL
same,Gamitrinib plasma concentration,"[1]; 5 mg/kg IV, animal 1, 60 min",71.445 ng/mL
same,Gamitrinib plasma concentration,"[1]; 5 mg/kg IV, animal 1, 120 min",46.657 ng/mL
same,Gamitrinib plasma concentration,"[1]; 5 mg/kg IV, animal 1, 240 min",36.816 ng/mL
same,Gamitrinib plasma concentration,"[1]; 5 mg/kg IV, animal 1, 1440 min",11.946 ng/mL
same,Gamitrinib plasma concentration,"[1]; 5 mg/kg IV, animal 2, 5 min",526.229 ng/mL
same,Gamitrinib plasma concentration,"[1]; 5 mg/kg IV, animal 2, 15 min",211.686 ng/mL
same,Gamitrinib plasma concentration,"[1]; 5 mg/kg IV, animal 2, 30 min",114.230 ng/mL
same,Gamitrinib plasma concentration,"[1]; 5 mg/kg IV, animal 2, 60 min",65.903 ng/mL
same,Gamitrinib plasma concentration,"[1]; 5 mg/kg IV, animal 2, 120 min",43.125 ng/mL
same,Gamitrinib plasma concentration,"[1]; 5 mg/kg IV, animal 2, 240 min",34.776 ng/mL
same,Gamitrinib plasma concentration,"[1]; 5 mg/kg IV, animal 2, 1440 min",10.511 ng/mL
same,Gamitrinib plasma concentration,"[1]; 5 mg/kg IV, animal 3, 5 min",674.432 ng/mL
same,Gamitrinib plasma concentration,"[1]; 5 mg/kg IV, animal 3, 15 min",128.663 ng/mL
same,Gamitrinib plasma concentration,"[1]; 5 mg/kg IV, animal 3, 30 min",67.204 ng/mL
same,Gamitrinib plasma concentration,"[1]; 5 mg/kg IV, animal 3, 60 min",55.991 ng/mL
same,Gamitrinib plasma concentration,"[1]; 5 mg/kg IV, animal 3, 120 min",29.914 ng/mL
same,Gamitrinib plasma concentration,"[1]; 5 mg/kg IV, animal 3, 240 min",28.905 ng/mL
same,Gamitrinib plasma concentration,"[1]; 5 mg/kg IV, animal 3, 1440 min",10.365 ng/mL
same,generation of metabolite 17-AG,"[1]; rats, IV Gamitrinib 5 mg/kg, plasma",without generation of 17-AG; also recorded: did not generate detectable levels; also recorded: no generation of 17-AG
